Measured values reported in patent US20170050957A1, “4-AMINO-6-(HETEROCYCLIC)PICOLINATES AND 6-AMINO-2-(HETEROCYCLIC)PYRIMIDINE-4-CARBOXYLATES AND THEIR USE AS HERBICIDES” (Dow AgroSciences LLC, priority 2013, published 2017).
Where two headings read alike, the source gives them in different places.

How the values were obtained:
[1] = system: Key Broadleaf Weed and Crop Species; test: Post-emergent Test II herbicidal activity (Table 15); format: in vivo; conditions: post-emergence, 336 h, 14 d; for pest or weed control at 35 g/ha: 35 g ai/ha; for pest or weed control at 70 g/ha: 70 g ai/ha; for pest or weed control at 140 g/ha: 140 g ai/ha
Procedure, shortened: (§1)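 Plants grown in greenhouse (~15 h photoperiod, 23-29 °C day, 22-28 °C night) to first or second true leaf stage, then sprayed post-emergence at 187 L/ha with a high rate and 1/2×, 1/4×, 1/8× and 1/16× dilutions. Injury scored visually after 14 d, 0-100% versus untreated plants.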

[2] = system: Key Grass and Sedge Weeds as well as Grass Crops; test: Post-emergent Test II herbicidal activity (Table 16); format: in vivo; conditions: post-emergence, 336 h, 14 d; for pest or weed control at 35 g/ha: 35 g ai/ha; for pest or weed control at 70 g/ha: 70 g ai/ha; for pest or weed control at 140 g/ha: 140 g ai/ha
Procedure, shortened: as §1

[3] = Abutilon theophrasti, velvetleaf (Abutilon theophrasti), read-out: Visual Growth Reduction (%) 14 Days After Application, ABUTH
[4] = Amaranthus retroflexus, redroot pigweed (Amaranthus retroflexus), read-out: Visual Growth Reduction (%) 14 Days After Application, AMARE
[5] = Brassica napus, oilseed rape, canola (Brassica napus), read-out: Visual Growth Reduction (%) 14 Days After Application, BRSNN
[6] = Chenopodium album, lambsquarters (Chenopodium album), read-out: Visual Growth Reduction (%) 14 Days After Application, CHEAL
[7] = Euphorbia heterophylla, wild poinsettia (Euphorbia heterophylla), read-out: Visual Growth Reduction (%) 14 Days After Application, EPHHL
[8] = Helianthus annuus, sunflower (Helianthus annuus), read-out: Visual Growth Reduction (%) 14 Days After Application, HELAN
[9] = Cyperus esculentus, yellow nutsedge (Cyperus esculentus), read-out: Visual Growth Reduction (%) 14 Days After Application, CYPES
[10] = Echinochloa crus-galli, barnyardgrass (Echinochloa crus-galli), read-out: Visual Growth Reduction (%) 14 Days After Application, ECHCG
[11] = Oryza sativa, rice (Oryza sativa), read-out: Visual Growth Reduction (%) 14 Days After Application, ORYSA
[12] = Setaria faberi, giant foxtail (Setaria faberi), read-out: Visual Growth Reduction (%) 14 Days After Application, SETFA
[13] = Triticum aestivum, wheat, spring (Triticum aestivum), read-out: Visual Growth Reduction (%) 14 Days After Application, TRZAS
[14] = Zea mays, maize, corn (Zea mays), read-out: Visual Growth Reduction (%) 14 Days After Application, ZEAMX

Compound	pest or weed control at 35 g/ha [1, 3]	pest or weed control at 70 g/ha [1, 3]	pest or weed control at 140 g/ha [1, 3]	pest or weed control at 35 g/ha [1, 4]	pest or weed control at 70 g/ha [1, 4]	pest or weed control at 140 g/ha [1, 4]	pest or weed control at 35 g/ha [1, 5]	pest or weed control at 70 g/ha [1, 5]	pest or weed control at 140 g/ha [1, 5]	pest or weed control at 35 g/ha [1, 6]	pest or weed control at 70 g/ha [1, 6]	pest or weed control at 140 g/ha [1, 6]	pest or weed control at 35 g/ha [1, 7]	pest or weed control at 70 g/ha [1, 7]	pest or weed control at 140 g/ha [1, 7]	pest or weed control at 35 g/ha [1, 8]	pest or weed control at 70 g/ha [1, 8]	pest or weed control at 140 g/ha [1, 8]	pest or weed control at 35 g/ha [2, 9]	pest or weed control at 70 g/ha [2, 9]	further results
COC(=O)c1nc(-c2ccc3cc[nH]c3c2)nc(N)c1OC [Compound 1.32]	0 to 29%	0 to 29%	0 to 29%	0 to 29%	30 to 44%	60 to 74%	30 to 44%	45 to 59%	60 to 74%	0 to 29%	0 to 29%	75 to 84%	0 to 29%	60 to 74%	85 to 94%	45 to 59%	60 to 74%	75 to 84%	0 to 29%	0 to 29%	pest or weed control at 140 g/ha [2, 9]: 0 to 29%; pest or weed control at 35 g/ha [2, 10]: 0 to 29%; pest or weed control at 70 g/ha [2, 10]: 0 to 29%; pest or weed control at 140 g/ha [2, 10]: 0 to 29%; pest or weed control at 35 g/ha [2, 11]: 0 to 29%; pest or weed control at 70 g/ha [2, 11]: 0 to 29%; pest or weed control at 140 g/ha [2, 11]: 0 to 29%; pest or weed control at 35 g/ha [2, 12]: 0 to 29%; pest or weed control at 70 g/ha [2, 12]: 0 to 29%; pest or weed control at 140 g/ha [2, 12]: 0 to 29%; pest or weed control at 35 g/ha [2, 13]: 0 to 29%; pest or weed control at 70 g/ha [2, 13]: 0 to 29%; pest or weed control at 140 g/ha [2, 13]: 0 to 29%; pest or weed control at 35 g/ha [2, 14]: 0 to 29%; pest or weed control at 70 g/ha [2, 14]: 0 to 29%; pest or weed control at 140 g/ha [2, 14]: 0 to 29%; melting point: 190 to 191 °C
COc1c(N)nc(-c2ccc3cc[nH]c3c2)nc1C(=O)O [Compound 1.33]	0 to 29%	0 to 29%	0 to 29%	60 to 74%	60 to 74%	75 to 84%	95 to 100%	95 to 100%	95 to 100%	0 to 29%	45 to 59%	60 to 74%	45 to 59%	60 to 74%	75 to 84%	60 to 74%	60 to 74%	75 to 84%	0 to 29%	0 to 29%	pest or weed control at 140 g/ha [2, 9]: 0 to 29%; pest or weed control at 35 g/ha [2, 10]: 0 to 29%; pest or weed control at 70 g/ha [2, 10]: 0 to 29%; pest or weed control at 140 g/ha [2, 10]: 0 to 29%; pest or weed control at 35 g/ha [2, 11]: 0 to 29%; pest or weed control at 70 g/ha [2, 11]: 0 to 29%; pest or weed control at 140 g/ha [2, 11]: 0 to 29%; pest or weed control at 35 g/ha [2, 12]: 0 to 29%; pest or weed control at 70 g/ha [2, 12]: 0 to 29%; pest or weed control at 140 g/ha [2, 12]: 0 to 29%; pest or weed control at 35 g/ha [2, 13]: 0 to 29%; pest or weed control at 70 g/ha [2, 13]: 0 to 29%; pest or weed control at 140 g/ha [2, 13]: 30 to 44%; melting point: 154 to 157 °C
